Reference: ChEMBL document CHEMBL1201862, “PubChem BioAssay data set” (2004)
Each block holds one compound with its values, some of them ahead of it. The source made the active and inactive calls.

Experiments:
[1] = molecular target: Glutathione-S-transferase (Schistosoma japonicum, UniProt Q26513); experiment: GST-antibody interaction or FRET quenching – biochemical, TR-FRET, artefact control for Vif-APOBEC3G degradation inhibitor project, dose response (AID 1117362); type: functional
[2] = molecular target: Estrogen receptor beta (Homo sapiens, UniProt Q92731);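 note: recombinant ER-beta bound to coactivator SRC1 peptide in presence of estradiol agonist; inhibitors block coactivator peptide binding and lower the FRET signal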
Chain of Estrogen receptor beta (Q92731 whole entry): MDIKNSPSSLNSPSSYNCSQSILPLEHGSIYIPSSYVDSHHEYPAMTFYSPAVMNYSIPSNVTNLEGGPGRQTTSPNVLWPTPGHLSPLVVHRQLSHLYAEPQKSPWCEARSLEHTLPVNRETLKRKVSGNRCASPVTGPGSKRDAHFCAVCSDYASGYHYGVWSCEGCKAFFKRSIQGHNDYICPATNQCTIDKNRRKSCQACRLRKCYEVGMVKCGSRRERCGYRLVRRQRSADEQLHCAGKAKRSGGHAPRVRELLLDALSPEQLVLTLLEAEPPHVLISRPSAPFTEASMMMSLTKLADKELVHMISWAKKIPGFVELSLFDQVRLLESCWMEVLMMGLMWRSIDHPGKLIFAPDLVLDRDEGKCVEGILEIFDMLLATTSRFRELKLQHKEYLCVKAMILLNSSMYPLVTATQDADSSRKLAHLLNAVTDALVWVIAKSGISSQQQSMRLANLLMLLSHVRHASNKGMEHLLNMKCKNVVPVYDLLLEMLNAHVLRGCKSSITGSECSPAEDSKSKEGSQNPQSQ

[3] = viability loss in THP-1 monocytes – THP-1 cells, cytotoxicity control for Vif-APOBEC3G degradation inhibitor project, dose response (AID 1117359); type: functional; settings: THP-1
[4] = molecular target: Glucose-6-phosphate 1-dehydrogenase (Homo sapiens, UniProt P11413); experiment: inhibition of Homo sapiens G6PD, dose series – biochemical, fluorescence, selectivity assay for P. falciparum G6PD inhibitor project, dose response (AID 504792); type: functional
Chain of Glucose-6-phosphate 1-dehydrogenase (P11413 whole entry, the tested form may be a part): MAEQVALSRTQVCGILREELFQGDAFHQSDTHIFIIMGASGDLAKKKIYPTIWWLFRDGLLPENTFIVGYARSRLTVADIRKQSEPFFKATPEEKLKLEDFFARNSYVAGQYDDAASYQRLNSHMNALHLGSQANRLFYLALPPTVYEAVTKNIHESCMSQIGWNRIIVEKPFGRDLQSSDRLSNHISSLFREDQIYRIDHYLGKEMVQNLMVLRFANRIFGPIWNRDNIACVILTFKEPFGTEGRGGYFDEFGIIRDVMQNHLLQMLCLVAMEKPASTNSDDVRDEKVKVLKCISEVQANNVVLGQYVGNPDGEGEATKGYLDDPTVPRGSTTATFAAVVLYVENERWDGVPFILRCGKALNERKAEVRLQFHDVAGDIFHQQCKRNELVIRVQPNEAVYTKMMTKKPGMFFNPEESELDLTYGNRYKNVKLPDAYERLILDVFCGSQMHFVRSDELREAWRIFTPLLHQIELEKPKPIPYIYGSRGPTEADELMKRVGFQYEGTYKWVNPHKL

[5] = viability loss in CEM21 cells – cell-based, CellTiter-Glo luminescence, cherry-picked, cytotoxicity control for viral fusion inhibitor project, dose response (AID 652042); type: functional;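 note: potency for signal decrease meaning cytotoxicity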
[6] = blockers of HIV-1 ZM109 envelope-driven cell-cell fusion – HeLa effector, CEM target cells, luciferase, cherry-pick, dose response (AID 652058); type: functional, cell-based;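 note: luciferase signal from HIV-1 Env mediated cell-cell fusion of effector and target cells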
[7] = molecular target: T1, Oxysterols receptor LXR-beta (Homo sapiens, UniProt P55055); experiment: LXR agonists, Gal4 luciferase reporter, dose response, counter-screen for ssDAF-12 agonist project, cell-based, luminescence, HEK293, S. stercoralis campaign (AID 720737); type: functional; settings: read-out: IC50 (the source's name)
T1 sequence (P55055 whole entry): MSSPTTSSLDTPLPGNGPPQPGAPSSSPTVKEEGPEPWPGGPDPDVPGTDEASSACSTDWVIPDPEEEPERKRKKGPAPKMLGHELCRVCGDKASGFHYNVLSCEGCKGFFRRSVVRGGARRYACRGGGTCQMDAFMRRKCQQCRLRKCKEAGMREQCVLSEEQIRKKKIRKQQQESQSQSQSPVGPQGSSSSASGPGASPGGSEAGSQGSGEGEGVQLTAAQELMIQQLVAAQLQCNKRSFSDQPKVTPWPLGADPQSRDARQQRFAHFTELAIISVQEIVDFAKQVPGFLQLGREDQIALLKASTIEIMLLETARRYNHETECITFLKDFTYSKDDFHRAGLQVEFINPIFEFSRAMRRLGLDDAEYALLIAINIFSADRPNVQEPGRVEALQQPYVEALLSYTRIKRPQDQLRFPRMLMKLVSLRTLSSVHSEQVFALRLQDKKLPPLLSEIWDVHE

[8] = off-target signal loss in HeLa-CEM21 co-culture – HeLa F-luc CTL cells, cherry-picked, counter-screen for HIV-1 Env fusion inhibitor project, dose response (AID 652040); type: functional, cell-based;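 note: potency for signal decrease marking cytotoxic or nonspecific inhibition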
[9] = HIV-1 AD8 envelope cell-cell fusion blockers – cherry-pick, dose response (AID 652062); type: functional, cell-based;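 note: luciferase signal from cell-cell fusion driven by HIV-1 clade B AD8 Env; potency is for inhibitors of fusion seen as a drop in luminescence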
[10] = blockers of HIV-1 envelope-mediated cell-cell fusion – cherry-pick, dose response (AID 652057); type: functional, cell-based
[11] = Luminescence-based cell-based high throughput dose response assay to identify activators of the DAF-12 from the parasite S. stercoralis (ssDAF-12).; type: functional
[12] = growth inhibition of yeast DHODH-expressing 3D7 parasites – SYBR Green, dry powder samples, dose response (AID 1159570); type: functional, cell-based;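 note: parasite growth measured after 72 hours of compound exposure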
[13] = toxicity to human HepG2 hepatoma cells – cell-based, plate reader, dry powder samples, cytotoxicity control, dose response (AID 1159569); type: functional;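 note: inhibitor potency with signal falling toward the positive control level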
[14] = COV362 cell viability loss – plate reader, dry powder, SA12, cytotoxicity control for PAX8 inhibitor project, dose response (AID 743144); type: functional, cell-based
[15] = P. falciparum Dd2 growth inhibitors, dose response, SYBR Green, cherry-picked samples (AID 1159567); type: functional, cell-based
[16] = growth inhibition of PfATP4-mutant resistant parasites – NITD609-resistant line, SYBR Green, dry powder, dose response (AID 1159571); type: functional, cell-based;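 note: parasites synchronized at ring stage by sorbitol before testing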
[17] = molecular target: Paired box protein Pax-8 (Homo sapiens, UniProt Q06710); experiment: PAX8 transcriptional activity inhibition in RMG-I – RMG-I cells, luciferase, cherry-pick, dose response (AID 687027); type: functional, cell-based;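 note: luciferase reporter driven by Pax8 target thyroperoxidase promoter measured by SteadyGlo luminescence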
Chain of Paired box protein Pax-8 (Q06710 whole entry): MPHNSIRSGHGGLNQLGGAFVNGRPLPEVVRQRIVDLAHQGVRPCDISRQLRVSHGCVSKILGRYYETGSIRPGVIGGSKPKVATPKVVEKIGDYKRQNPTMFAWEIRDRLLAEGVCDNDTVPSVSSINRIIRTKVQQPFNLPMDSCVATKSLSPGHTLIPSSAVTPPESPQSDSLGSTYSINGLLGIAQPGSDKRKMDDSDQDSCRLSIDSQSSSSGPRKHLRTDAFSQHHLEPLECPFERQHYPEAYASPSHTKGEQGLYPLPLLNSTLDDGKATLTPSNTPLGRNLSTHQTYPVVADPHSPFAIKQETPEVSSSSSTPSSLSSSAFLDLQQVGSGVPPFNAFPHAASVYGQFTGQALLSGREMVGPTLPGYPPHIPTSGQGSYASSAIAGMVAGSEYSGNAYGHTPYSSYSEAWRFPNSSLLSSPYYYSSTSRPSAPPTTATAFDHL

[18] = PAX5 cellular inhibition readout – cell-based, plate reader, dry powder samples, selectivity assay for PAX8 inhibitor project, dose response (AID 743047); type: functional;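 note: HEK293 cells carrying a Pax5 driven CD19 promoter luciferase reporter; potency of inhibitors that lower reporter luminescence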
[19] = Dd2 malaria parasite growth inhibition potency – SYBR Green, dry powder samples, dose response (AID 1159566); type: functional, cell-based;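 note: potency for growth inhibition with lower SYBR green DNA signal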
[20] = inhibitors acting on PAX2 in cells – cell-based, plate reader, dry powder samples, selectivity assay for PAX8 inhibitor project, dose response (AID 743048); type: functional;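 note: HEK293 cells carrying a WT1 promoter luciferase reporter driven by expressed Pax2; potency is for inhibition of Pax2 driven reporter signal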
[21] = PAX8-dependent cell viability loss – plate reader, dry powder, dose response (AID 743049); type: functional, cell-based
[22] = OVCAR8 cell viability loss – plate reader, dry powder samples, PAX8 project, dose response (AID 743197); type: functional, cell-based; settings: OVCAR-8
[23] = OVCAR-3 cell viability loss – plate reader, dry powder samples, PAX8 inhibitor project, dose response (AID 743044); type: functional, cell-based
[24] = toxicity toward immortalized ovarian surface epithelium – cell-based, plate reader, dry powder samples, cytotoxicity control for PAX8 inhibitor project, dose response (AID 743045); type: functional
[25] = A2780 cell killing – plate reader, dry powder samples, cytotoxicity control, dose response (AID 743046); type: functional, cell-based
[26] = IGROV1 cell killing – plate reader, dry powder samples, PAX8 inhibitor project, dose response (AID 743043); type: functional, cell-based; settings: IGROV-1
[27] = Late stage assay provider results from the probe development effort to identify selective inhibitors of heat shock protein 90 (HSP90): Absorbance-based cell proliferation assay in MCF7 cells.; type: functional
[28] = Late stage assay provider results from the probe development effort to identify selective inhibitors of heat shock protein 90 (HSP90): Absorbance-based cell proliferation assay in SKBR3 cells.; type: functional; settings: SK-BR-3
[29] = cytotoxicity toward Colo320 cells – cell-based, CellTiter-Glo luminescence, IC50, dose response (AID 1117334); type: functional; settings: COLO 320
[30] = HCT116 cell viability decrease, GSK3B pretreatment – CellTiter-Glo, IC50, dose response (AID 1117339); type: functional; settings: HCT-116
[31] = Reduced DLD-1 viability, concentration-response, CellTiter-Glo luminescence (AID 1117352); type: functional
[32] = cytotoxicity toward HCT116 cells – cell-based, CellTiter-Glo luminescence, IC50, dose response (AID 1117332); type: functional; settings: HCT-116
[33] = SNU-C1 cell viability reduction, dose response, CellTiter-Glo luminescence (AID 1117323); type: functional, cell-based
[34] = RKO cell viability reduction, dose response, CellTiter-Glo luminescence (AID 1117322); type: functional
[35] = cytotoxicity toward HT-29 cells – cell-based, CellTiter-Glo luminescence, IC50, dose response (AID 1117330); type: functional
[36] = CellTiter-Glo luminescence survival assay, SW480 colon tumor line, concentration-response curve, half-maximal inhibitory concentration (AID 1117338); type: functional

Chain of Glutathione-S-transferase (Q26513 whole entry): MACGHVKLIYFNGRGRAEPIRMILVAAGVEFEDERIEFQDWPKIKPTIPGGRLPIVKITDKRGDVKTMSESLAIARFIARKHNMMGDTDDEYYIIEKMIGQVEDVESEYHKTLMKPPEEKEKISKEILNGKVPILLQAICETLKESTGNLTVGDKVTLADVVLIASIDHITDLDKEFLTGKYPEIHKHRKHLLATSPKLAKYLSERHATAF

Compound: Cn1nccc1NC(=O)Nc1ccc(Cl)cc1
IC50 [1]: 93.4 µM (active)

IC50 [2]: > 50 µM (not active)
Compound: COc1ccc(N2CC(C(=O)O)CC2=O)cc1 (stereo not drawn)

IC50 [4]: 33.9 µM (inactive)
Compound: COc1cccc(C=Nc2cc(C(C)C)c(O)cc2C)c1O
CC50 [3]: 27.2 µM (active)

Compound: Fc1cccc(Cc2c(-c3ccco3)nc3c4ccccc4ccn23)c1
AC50 [5]: 44 µM (active)
AC50 [6]: 1.2 µM (active)
EC50 [7]: > 67.5 µM (inactive)
AC50 [8]: 0.907 µM (active)
AC50 [9]: 5.56 µM (active)
AC50 [10]: 1.12 µM (active)
IC50 [11]: > 67.5 µM (inactive)

Compound: COc1cccc(C#Cc2ccc([C@@H]3[C@@H](C#N)N(C(=O)C4CCCCC4)[C@H]3CO)cc2)c1
AC50 [12]: 1.11 µM (active)
AC50 [13]: 26.5 µM (active)
AC50 [14]: > 70 µM (inactive)
AC50 [15]: 0.865 µM (active)
AC50 [16]: 1.13 µM (active)
AC50 [17]: 8.61 µM (active)
AC50 [18]: 5.72 µM (active)
AC50 [19]: 0.422 µM (active)
AC50 [20]: 46.5 µM (active)
AC50 [21]: 15.9 µM (active)
AC50 [22]: > 70 µM (inactive)

Compound: COc1ccc(-c2ccc3c(c2)[C@H]2[C@H](CCN2S(=O)(=O)c2ccc(OC)cc2)[C@H](CO)N3C)cc1
AC50 [23]: 3.15 µM (active)
AC50 [24]: 6.56 µM (active)
AC50 [25]: 1.52 µM (active)
AC50 [17]: 7.21 µM (active)
AC50 [26]: 5.8 µM (active)
AC50 [22]: 7.31 µM (active)

Compound: CCCCCCCCOc1ccc(NC(=O)c2coc(=O)c(Br)c2)cc1
IC50 [27]: 12.9 µM (inactive)
IC50 [28]: 13.5 µM (inactive)

Compound: O=C(NCc1cccnc1)c1coc(=O)c(Br)c1
IC50 [27]: 3.5 µM (active)
IC50 [28]: 12.8 µM (inactive)

Compound: O=C(NC(=O)c1c(F)cccc1F)Nc1ccc(Cl)c(Oc2ncc(C(F)(F)F)cc2Cl)c1 [FLUAZURON]
IC50 [29]: > 20 µM (inactive)
IC50 [30]: 10.6 µM (inactive)
IC50 [31]: > 20 µM (inactive)
IC50 [32]: > 20 µM (inactive)
IC50 [33]: > 20 µM (inactive)
IC50 [34]: 11.8 µM (inactive)
IC50 [35]: > 20 µM (inactive)
IC50 [36]: > 20 µM (inactive)

Compound: CC(=O)N(CC(O)CN(C(C)=O)c1c(I)c(C(=O)NCC(O)CO)c(I)c(C(=O)NCC(O)CO)c1I)c1c(I)c(C(=O)NCC(O)CO)c(I)c(C(=O)NCC(O)CO)c1I (stereo not drawn) [IODIXANOL]
IC50 [29]: > 20 µM (inactive)
IC50 [30]: > 20 µM (inactive)
IC50 [31]: > 20 µM (inactive)
IC50 [32]: > 20 µM (inactive)
IC50 [33]: > 20 µM (inactive)
IC50 [34]: > 20 µM (inactive)
IC50 [35]: > 20 µM (inactive)
IC50 [36]: > 20 µM (inactive)
